Activity calls are given as the source filed them.
Legend:
BJ [1] = assay: cytotoxicity toward BJ-TERT fibroblasts, dose response, cell-based, RAS-independent, luminescence (AID 1933); format: functional; settings: Homo sapiens
[2] = HEK293T cytotoxicity, dose response, cytotoxicity control for miR-122 modulator project, cell-based, activator set, cherry-pick (AID 720690); format: functional;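 further: HEK293T human cells scored for general mammalian cytotoxicity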
[3] = biological target: Sphingosine 1-phosphate receptor 2 (Homo sapiens, UniProt O95136); assay: Dose Response Cell Based Assay for Antagonists of the S1P2 Receptor. [Related pubchem assays: 856, 736 ]; format: functional
BJ [4] = assay: cytotoxicity toward Ras-transformed BJeLR fibroblasts, dose response, cell-based, alamar blue fluorescence, cherrypicked samples (AID 2631); format: functional; settings: Homo sapiens;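 further: confirmatory dose-response assay in RAS-dependent BJ fibroblasts engineered with TERT, LT and ST, with cytotoxicity read by fluorescence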
[5] = inhibitors of firefly luciferase expression or activity, dose response, H4 neuroglioma cells, luminescence (AID 1990); format: functional, cell-based
BJ [6] = assay: cytotoxicity toward BJ-TERT-LT-ST fibroblasts, dose response, cell-based, RAS-independent, luminescence (AID 1935); format: functional; settings: Homo sapiens;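 further: BJ fibroblasts immortalized with TERT plus LT and ST oncogenes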
[7] = Luminescence-based dose response cell-based high throughput screening assay for cytotoxic compounds using the IEC-6 intestinal epithelial cell line. [Related pubchem assays: 1858 (Summary AID.), 1825 (Counterscreen.), 1907 (Confirmation screen.)]; format: functional
HEK293 [8] = assay: inhibitors of LMP1-driven NF-kB reporter, dose response, cell-based, HEK293, luciferase, cherry-pick (AID 588343); format: functional; settings: Homo sapiens
[9] = biological target: Latent membrane protein 1 (Human herpesvirus 4 (strain B95-8), UniProt P03230); assay: TES1-eGFP NF-kB reporter inhibition versus Tet-On dsRED, dose response, selectivity assay for LMP1 NF-kB inhibitor project, imaging, HEK293T, dual-color eGFP/dsRED, cherry-picks (AID 588398); format: functional, cell-based
[10] = inhibitors of SNCA 5'UTR-driven reporter translation, confirmation, H4 neuroglioma cells, luminescence (AID 1988); format: functional, cell-based
[11] = biological target: T1, Neuropeptide Y receptor type 1 (Homo sapiens, UniProt P25929); assay: Fluorescence-based counterscreen for agonists of NPY-Y2: cell-based high-throughput dose response assay for agonists of NPY-Y1.; format: functional
T1 sequence (P25929 whole entry): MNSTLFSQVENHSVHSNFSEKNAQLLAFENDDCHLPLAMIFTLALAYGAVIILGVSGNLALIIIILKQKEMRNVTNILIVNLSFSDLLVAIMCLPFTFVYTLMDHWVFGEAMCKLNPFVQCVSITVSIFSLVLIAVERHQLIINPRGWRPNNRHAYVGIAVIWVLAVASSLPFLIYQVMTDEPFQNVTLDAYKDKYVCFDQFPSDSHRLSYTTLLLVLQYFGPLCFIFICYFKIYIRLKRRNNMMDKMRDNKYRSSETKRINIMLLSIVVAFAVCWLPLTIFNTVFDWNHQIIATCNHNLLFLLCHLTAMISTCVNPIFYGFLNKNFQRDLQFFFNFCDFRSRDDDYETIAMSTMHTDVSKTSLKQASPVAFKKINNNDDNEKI

[12] = miR-122 activators in hepatoma reporter cells, dose response, cell-based, Huh7 psiCHECK-miR122, Renilla luciferase, cherry-picked (AID 651956); format: functional;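 further: huh7 hepatoma cells stably carrying a psiCHECK-2 miR-122 sensor plasmid; renilla luciferase signal reporting endogenous miR-122 activity after 48 h compound exposure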
[13] = HEK293T cytotoxicity, dose response, cytotoxicity control for miR-122 modulator project, cell-based, inhibitor set, cherry-pick, set 2 (AID 720697); format: functional
INS1 [14] = assay: beta cell apoptosis inhibitors, cytokine rescue, dose response, luminescence, retest (AID 449756); format: functional, cell-based; settings: Rattus norvegicus;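 further: cell death triggered by IL-1 beta plus TNF-alpha plus IFN-gamma mixture; protective hits raise ATP signal compared with cytokine alone wells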
[15] = Luminescence Cell-Based Dose Response HTS to Identify Inhibitors of 5'UTR Stem-Loop Driven Prion Protein mRNA Translation in H4 Neuroglioblastoma Cells. [Related pubchem assays: 1827 (Project Summary), 1813 (Primary HTS)]; format: functional
BJ [16] = assay: cells; format: functional, cell-based; settings: Homo sapiens
[17] = cytotoxicity in HEK-293T cells, dose response, cytotoxicity control for TCR NF-kB inhibitor project, luminescence, T-cell screen hits (AID 489026); format: functional, cell-based;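 further: cells exposed to compound about 14 hours before the viability readout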
HEK293 [18] = assay: Fluorescence-based counterscreen for potentiators or agonists of NPY-Y2: cell-based high-throughput dose response assay to identify inhibitors of cyclic nucleotide gated ion channel (CNGC) activity. In this assay, the parental HEK293 cell line transfected with a cyclic-nucleotide gated ion channel (CNGC)-based cAMP sensor is used to measure inhibition of isoproterenol-induced CNGC activity by test compound.; format: functional; settings: Homo sapiens
[19] = biological target: T2, Neuropeptide Y receptor type 2 (Homo sapiens, UniProt P49146); assay: Fluorescence-based cell-based high-throughput dose response assay for agonists of NPY-Y2. [Related pubchem assays: 1703 (Screening assay (CNGC inhibitors).), 1359 (Screening assay (NPY-Y2 potentiators or agonists).), 1304 (Screening assay (NPY-Y1 potentiators or agonists).), 1710 (Screening assay (NPY-Y2 agonists).), 1791 (Summary AID.)]; format: functional
T2 sequence (P49146 whole entry): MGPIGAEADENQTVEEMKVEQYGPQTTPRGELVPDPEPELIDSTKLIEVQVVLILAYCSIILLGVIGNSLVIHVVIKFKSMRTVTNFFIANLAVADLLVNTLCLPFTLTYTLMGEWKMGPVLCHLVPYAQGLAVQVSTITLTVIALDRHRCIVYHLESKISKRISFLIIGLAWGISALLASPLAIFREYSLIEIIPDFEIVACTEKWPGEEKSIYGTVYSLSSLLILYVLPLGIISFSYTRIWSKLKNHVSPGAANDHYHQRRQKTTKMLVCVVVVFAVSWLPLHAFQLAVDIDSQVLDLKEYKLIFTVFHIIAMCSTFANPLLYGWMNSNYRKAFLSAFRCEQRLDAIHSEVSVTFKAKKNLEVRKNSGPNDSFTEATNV

[20] = cytotoxicity toward DRD oncogenic fibroblasts, dose response, cell-based, non-viral oncogenic, luminescence (AID 1934); format: functional; settings: Homo sapiens
INS1 [21] = assay: inhibitors of cytokine-induced nitrite release, dose response, cell-based, Griess absorbance, INS-1E, dry powder, set 2 (AID 488868); format: functional; settings: Rattus norvegicus
[22] = biological target: Melanin-concentrating hormone receptor 1 (Homo sapiens, UniProt Q99705); assay: Late-stage fluorescence-based counterscreen for antagonists of the G-protein coupled receptor 7 (GPR7): cell-based dose response assay to identify antagonists of the melanin-concentrating hormone receptor 1 (MCHR1) Set 5.; format: functional
[23] = biological target: Calcium/calmodulin-dependent protein kinase type II subunit gamma (Homo sapiens, UniProt Q13555); format: functional
[24] = biological target: Calcium/calmodulin-dependent protein kinase type II subunit beta (Homo sapiens, UniProt Q13554); format: functional
[25] = biological target: Tyrosine-protein kinase FRK (Homo sapiens, UniProt P42685); format: functional;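 further: FRK tested as one member of a kinome panel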
[26] = biological target: Calcium/calmodulin-dependent protein kinase type II subunit delta (Homo sapiens, UniProt Q13557); format: functional
[27] = biological target: MAP kinase-interacting serine/threonine-protein kinase 2 (Homo sapiens, UniProt Q9HBH9); format: functional
[28] = biological target: cAMP-dependent protein kinase catalytic subunit alpha (Homo sapiens, UniProt P17612); format: functional
[29] = biological target: Cell division cycle 7-related protein kinase (Homo sapiens, UniProt O00311); format: functional;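 further: value obtained from a kinome-wide kinase panel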
[30] = biological target: Homeodomain-interacting protein kinase 2 (Homo sapiens, UniProt Q9H2X6); format: functional;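 further: measured within a kinome-wide kinase profiling panel, HIPK2 being one panel member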
[31] = biological target: Serine/threonine-protein kinase pim-1 (Homo sapiens, UniProt P11309); format: functional
[32] = biological target: Glycogen synthase kinase-3 beta (Homo sapiens, UniProt P49841); format: functional;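 further: value comes from a broad kinome profiling panel, with GSK3B as the panel member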
[33] = biological target: Dual specificity protein kinase CLK4 (Homo sapiens, UniProt Q9HAZ1); format: functional
[34] = biological target: Interleukin-1 receptor-associated kinase 4 (Homo sapiens, UniProt Q9NWZ3); format: functional
[35] = biological target: Mitogen-activated protein kinase kinase kinase kinase 4 (Homo sapiens, UniProt O95819); format: functional
Chain of Mitogen-activated protein kinase kinase kinase kinase 4 (O95819 whole entry): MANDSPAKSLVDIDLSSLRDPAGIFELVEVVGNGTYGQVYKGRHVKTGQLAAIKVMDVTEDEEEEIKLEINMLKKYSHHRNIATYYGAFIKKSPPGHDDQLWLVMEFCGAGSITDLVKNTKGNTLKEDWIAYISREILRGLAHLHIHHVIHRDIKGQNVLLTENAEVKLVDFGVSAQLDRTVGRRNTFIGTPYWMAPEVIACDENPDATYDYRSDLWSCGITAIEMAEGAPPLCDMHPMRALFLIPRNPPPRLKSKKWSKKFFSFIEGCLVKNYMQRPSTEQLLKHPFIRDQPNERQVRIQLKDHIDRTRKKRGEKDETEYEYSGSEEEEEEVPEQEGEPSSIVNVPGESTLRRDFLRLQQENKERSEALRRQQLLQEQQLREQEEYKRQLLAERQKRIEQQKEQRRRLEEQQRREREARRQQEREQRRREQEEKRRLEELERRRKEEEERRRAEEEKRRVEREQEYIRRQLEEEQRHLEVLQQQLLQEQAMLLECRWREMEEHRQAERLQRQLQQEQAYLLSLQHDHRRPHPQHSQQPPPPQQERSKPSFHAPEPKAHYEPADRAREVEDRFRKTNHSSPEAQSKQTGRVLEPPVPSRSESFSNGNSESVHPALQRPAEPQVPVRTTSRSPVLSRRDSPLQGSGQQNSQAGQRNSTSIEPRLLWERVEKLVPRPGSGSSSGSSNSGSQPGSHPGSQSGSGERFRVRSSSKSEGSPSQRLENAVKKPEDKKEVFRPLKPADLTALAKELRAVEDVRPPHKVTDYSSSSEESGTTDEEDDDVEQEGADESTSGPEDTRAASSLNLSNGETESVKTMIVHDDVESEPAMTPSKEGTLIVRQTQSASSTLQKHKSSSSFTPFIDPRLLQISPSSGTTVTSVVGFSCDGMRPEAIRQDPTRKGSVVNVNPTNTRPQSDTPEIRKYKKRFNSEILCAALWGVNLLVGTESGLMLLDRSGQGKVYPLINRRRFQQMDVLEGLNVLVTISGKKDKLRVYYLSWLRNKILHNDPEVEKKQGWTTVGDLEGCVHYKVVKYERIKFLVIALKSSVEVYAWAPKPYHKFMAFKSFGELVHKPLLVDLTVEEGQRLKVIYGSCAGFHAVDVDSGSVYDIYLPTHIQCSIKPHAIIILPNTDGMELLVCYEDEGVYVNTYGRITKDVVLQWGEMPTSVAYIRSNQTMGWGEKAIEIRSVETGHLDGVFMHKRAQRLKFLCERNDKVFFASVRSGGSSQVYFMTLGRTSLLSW

Chain of Calcium/calmodulin-dependent protein kinase type II subunit delta (Q13557 whole entry): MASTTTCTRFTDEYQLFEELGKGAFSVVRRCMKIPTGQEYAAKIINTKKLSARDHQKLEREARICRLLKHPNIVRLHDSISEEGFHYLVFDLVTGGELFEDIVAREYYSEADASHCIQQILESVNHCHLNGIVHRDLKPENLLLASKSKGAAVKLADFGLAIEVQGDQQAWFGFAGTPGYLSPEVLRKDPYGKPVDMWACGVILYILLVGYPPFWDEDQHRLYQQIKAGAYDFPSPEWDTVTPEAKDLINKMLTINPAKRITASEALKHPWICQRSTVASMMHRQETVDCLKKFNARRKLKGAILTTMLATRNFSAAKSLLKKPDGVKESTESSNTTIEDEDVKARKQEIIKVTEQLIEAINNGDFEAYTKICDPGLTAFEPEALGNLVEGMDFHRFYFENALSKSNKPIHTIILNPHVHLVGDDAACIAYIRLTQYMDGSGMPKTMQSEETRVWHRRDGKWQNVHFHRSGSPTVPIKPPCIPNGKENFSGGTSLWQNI
Chain of MAP kinase-interacting serine/threonine-protein kinase 2 (Q9HBH9 whole entry): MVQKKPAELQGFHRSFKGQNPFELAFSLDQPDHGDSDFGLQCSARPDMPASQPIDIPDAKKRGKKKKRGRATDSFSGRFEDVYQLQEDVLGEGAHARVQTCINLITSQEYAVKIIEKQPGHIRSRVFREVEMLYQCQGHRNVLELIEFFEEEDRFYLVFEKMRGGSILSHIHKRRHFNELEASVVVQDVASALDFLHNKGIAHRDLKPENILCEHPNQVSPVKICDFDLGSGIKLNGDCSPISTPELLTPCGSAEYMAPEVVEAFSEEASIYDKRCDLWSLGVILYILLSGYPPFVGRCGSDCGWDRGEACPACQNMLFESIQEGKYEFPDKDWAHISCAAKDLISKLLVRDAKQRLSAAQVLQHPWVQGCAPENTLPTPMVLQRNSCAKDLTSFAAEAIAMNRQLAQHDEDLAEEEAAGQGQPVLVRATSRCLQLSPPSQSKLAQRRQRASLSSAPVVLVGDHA
Chain of Melanin-concentrating hormone receptor 1 (Q99705 whole entry): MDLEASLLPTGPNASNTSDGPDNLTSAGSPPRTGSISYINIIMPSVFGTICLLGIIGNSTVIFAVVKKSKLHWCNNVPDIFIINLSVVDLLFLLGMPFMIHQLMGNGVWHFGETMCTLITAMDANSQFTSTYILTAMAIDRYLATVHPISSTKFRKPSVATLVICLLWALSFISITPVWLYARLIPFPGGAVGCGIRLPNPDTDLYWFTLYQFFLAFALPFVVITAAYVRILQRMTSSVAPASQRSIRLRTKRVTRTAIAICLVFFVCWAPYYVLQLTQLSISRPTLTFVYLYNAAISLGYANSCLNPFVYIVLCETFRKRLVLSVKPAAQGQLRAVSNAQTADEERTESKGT
Chain of Dual specificity protein kinase CLK4 (Q9HAZ1 whole entry): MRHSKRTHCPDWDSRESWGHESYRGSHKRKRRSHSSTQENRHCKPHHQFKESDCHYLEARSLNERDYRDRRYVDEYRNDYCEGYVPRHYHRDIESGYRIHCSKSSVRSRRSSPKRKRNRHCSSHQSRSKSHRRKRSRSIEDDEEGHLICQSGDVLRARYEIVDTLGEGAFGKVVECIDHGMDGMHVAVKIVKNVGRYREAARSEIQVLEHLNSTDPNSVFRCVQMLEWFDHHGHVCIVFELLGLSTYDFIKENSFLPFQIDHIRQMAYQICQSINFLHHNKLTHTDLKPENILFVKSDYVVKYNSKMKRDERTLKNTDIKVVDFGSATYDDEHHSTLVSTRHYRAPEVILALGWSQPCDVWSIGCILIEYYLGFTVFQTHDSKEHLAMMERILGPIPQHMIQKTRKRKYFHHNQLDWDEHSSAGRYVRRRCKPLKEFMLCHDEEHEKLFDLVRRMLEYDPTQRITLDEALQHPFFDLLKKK
Chain of Cell division cycle 7-related protein kinase (O00311 whole entry): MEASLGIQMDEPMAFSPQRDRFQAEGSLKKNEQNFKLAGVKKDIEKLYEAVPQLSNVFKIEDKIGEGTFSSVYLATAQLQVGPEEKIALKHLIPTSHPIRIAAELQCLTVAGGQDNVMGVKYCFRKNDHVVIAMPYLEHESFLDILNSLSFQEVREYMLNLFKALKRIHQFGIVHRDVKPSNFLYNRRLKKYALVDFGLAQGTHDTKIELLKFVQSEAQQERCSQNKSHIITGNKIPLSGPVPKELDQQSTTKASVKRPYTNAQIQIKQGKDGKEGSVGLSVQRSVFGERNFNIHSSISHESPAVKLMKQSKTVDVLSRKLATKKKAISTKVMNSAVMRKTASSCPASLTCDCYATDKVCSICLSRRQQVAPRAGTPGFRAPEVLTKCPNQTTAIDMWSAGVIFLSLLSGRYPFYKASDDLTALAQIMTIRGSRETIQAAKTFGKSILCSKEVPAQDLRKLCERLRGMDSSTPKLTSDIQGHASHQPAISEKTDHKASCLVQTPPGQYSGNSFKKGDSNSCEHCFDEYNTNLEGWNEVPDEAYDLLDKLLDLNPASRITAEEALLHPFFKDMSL
Chain of Serine/threonine-protein kinase pim-1 (P11309 whole entry): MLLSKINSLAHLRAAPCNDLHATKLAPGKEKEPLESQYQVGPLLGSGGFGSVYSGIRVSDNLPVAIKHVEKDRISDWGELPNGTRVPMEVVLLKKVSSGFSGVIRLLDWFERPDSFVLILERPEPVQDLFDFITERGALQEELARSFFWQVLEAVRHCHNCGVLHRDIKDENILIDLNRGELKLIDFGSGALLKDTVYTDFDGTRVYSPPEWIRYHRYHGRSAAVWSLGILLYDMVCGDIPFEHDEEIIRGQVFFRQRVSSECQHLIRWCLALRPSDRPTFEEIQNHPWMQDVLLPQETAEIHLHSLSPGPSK
Chain of Interleukin-1 receptor-associated kinase 4 (Q9NWZ3 whole entry): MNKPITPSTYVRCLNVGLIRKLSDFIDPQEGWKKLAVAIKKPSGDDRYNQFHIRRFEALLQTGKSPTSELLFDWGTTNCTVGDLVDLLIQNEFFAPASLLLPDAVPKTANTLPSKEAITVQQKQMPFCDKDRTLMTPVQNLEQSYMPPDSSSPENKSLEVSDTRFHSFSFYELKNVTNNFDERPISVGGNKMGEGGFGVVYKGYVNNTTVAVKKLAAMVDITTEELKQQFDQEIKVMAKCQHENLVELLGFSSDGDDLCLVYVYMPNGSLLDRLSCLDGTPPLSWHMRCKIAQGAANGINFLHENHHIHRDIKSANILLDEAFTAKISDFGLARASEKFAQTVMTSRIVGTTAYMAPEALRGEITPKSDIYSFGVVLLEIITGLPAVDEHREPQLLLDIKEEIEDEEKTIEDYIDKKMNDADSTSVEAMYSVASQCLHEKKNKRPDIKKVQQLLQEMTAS
Chain of Sphingosine 1-phosphate receptor 2 (O95136 whole entry): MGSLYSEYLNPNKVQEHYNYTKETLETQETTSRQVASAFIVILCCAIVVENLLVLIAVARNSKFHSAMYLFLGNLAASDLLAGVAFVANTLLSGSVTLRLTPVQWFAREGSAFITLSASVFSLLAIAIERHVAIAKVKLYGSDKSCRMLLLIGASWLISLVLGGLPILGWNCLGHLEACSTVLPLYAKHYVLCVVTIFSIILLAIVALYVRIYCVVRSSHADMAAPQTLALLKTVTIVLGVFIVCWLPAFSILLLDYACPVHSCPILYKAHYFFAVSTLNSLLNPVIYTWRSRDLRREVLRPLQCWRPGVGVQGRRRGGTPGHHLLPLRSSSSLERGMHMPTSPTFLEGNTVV

## O=C(NC(Nc1nc2ccc([N+](=O)[O-])cc2s1)(C(F)(F)F)C(F)(F)F)c1ccccc1
BJ [1]
  EC50: 1.41 µM (active)
[2]
  AC50: 0.546 µM (active)
[3]
  IC50: 0.682 µM (active)
BJ [4]
  EC50: 0.727 µM (active)
[5]
  EC50: 0.394 µM (active)
BJ [6]
  EC50: 2.85 µM (inconclusive)
[7]
  IC50: 1.03 µM (active)
HEK293 [8]
  AC50: 0.208 µM (active)
[9]
  AC50: 0.816 µM (active)
[10]
  EC50: 0.449 µM (active)
[11]
  EC50: 35.3 µM (not active)
[12]
  AC50: 1.41 µM (active)
[13]
  AC50: < 0.195 µM (active)
INS1 [14]
  AC50: 0.298 µM (active)
[15]
  EC50: 7.5 µM (active)
BJ [16]
  EC50: 1.34 µM (active)
[17]
  IC50: > 80 µM (inactive)
HEK293 [18]
  EC50: > 35.4 µM (not active)
[19]
  EC50: 31.9 µM (not active)
[20]
  EC50: 1.66 µM (active)

## C[C@@H]1CN([C@@H](C)CO)C(=O)c2cccc(NS(=O)(=O)c3ccccc3)c2O[C@H]1CN(C)Cc1ccc(C(F)(F)F)cc1
INS1 [21]
  AC50: 242 µM (active)

## COc1ccc(Oc2c(Cl)cnn(C3c4ccccc4CCc4ccccc43)c2=O)cc1
[22]
  IC50: > 20 µM (inactive)

## CCCC(=O)c1ccc(NCc2c[nH]nc2-c2ccc(C(F)(F)F)cc2)cc1
[23]
  Ki: 3.98 µM (active)
[24]
  Ki: 1.26 µM (active)
[25]
  Ki: 2 µM (active)
[26]
  Ki: 3.98 µM (active)

## O=c1cc(-c2ccncc2)nc(NCc2cc(F)cc(F)c2)[nH]1
[27]
  Ki: 0.398 µM (active)
[28]
  Ki: 6.31 µM (active)
[29]
  Ki: 0.00631 µM (active)
[30]
  Ki: 0.631 µM (active)
[31]
  Ki: 6.31 µM (active)
[32]
  Ki: 0.2 µM (active)
[33]
  Ki: 0.0126 µM (active)
[34]
  Ki: 2 µM (active)
[35]
  Ki: 0.0631 µM (active)

— ChEMBL document CHEMBL1201862, “PubChem BioAssay data set” (2004)
